Data from patent US20050137242A1, “Betamimetics having a long-lasting activity, processes for preparing them, and their use as medicaments” (Boehringer Ingelheim Pharma GmbH & Co. KG, priority 2000, published 2005).
Structures can show the parent of a compound that is named as a salt.

melting point [°C] | Compound
175 to 179 | COc1ccc(-c2ncn(CCC(C)(C)NCC(O)c3ccc(O)c4c3OCC(=O)N4)n2)cc1 (stereo not shown) (as salt: hydrochloride) [Example 5, 1-[2H-5-hydroxy-3-oxo-4H-1,4-benzoxazin-8-yl]-2-{4-[3-(4-methoxyphenyl)-1,2,4-triazol-3-yl]-2-methyl-2-butylamino}ethanol]
202 to 205 | COc1ccc(CC(C)(C)NCC(O)c2ccc(O)c3c2OCC(=O)N3)cc1 (stereo not shown) (as salt: hydrochloride) [Example 4, 1-[2H-5-hydroxy-3-oxo-4H-1,4-benzoxazin-8-yl]-2-[3-(4-methoxyphenyl)-2-methyl-2-propylamino]ethanol]
154 to 155 | COc1ccc(CNc2cc(C(O)CNC(C)(C)CCn3cnc4ccccc43)ccc2O)cc1 (stereo not shown) (as salt: acetate) [Example 3, 1-[3-(4-methoxybenzylamino)-4-hydroxyphenyl]-2-[4-(1-benzimidazolyl)-2-methyl-2-butylamino]ethanol]
189 to 190 | CCCCOc1ccc(CC(C)(C)NCC(O)c2ccc(O)c3c2OCC(=O)N3)cc1 (stereo not shown) (as salt: methanesulfonate) [Example 2, 1-[2H-5-hydroxy-3-oxo-4H-1,4-benzoxazin-8-yl]-2-[3-(4-n-butyloxyphenyl)-2-methyl-2-propylamino]ethanol]
